This note sets out measurements from PubChem BioAssay AID1159565 (GlaxoSmithKline (GSK), 2015).

Active and inactive are the calls of the source. No rule for the calls is given here. Some results are limits rather than exact numbers.

The assay deals with T. cruzi-infected H9C2 cardiomyocytes, high-content imaging. The assay can be described thus: anti-T. cruzi activity in infected cardiomyocytes – imaging, H9C2 host cardiomyocytes, host toxicity (AID 1159565).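 Also: infected cells incubated 72 h after plating.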
Where [1] appears, read: measured here: H9C2 host cell toxicity.
The mark [2] stands for this setting: measured here: amastigotes per cell.

Regarding `Cc1ccccc1CNc1cc(C2CC2)nc(-c2nccn2C)n1`, the IC50 was 790 nM. The same compound came in with a 50% inhibitory concentration (IC50) under setting [1] of 790 nM. The compound also yielded an IC50 under setting [2] of 790 nM.
On to `Nc1nc(-c2ccccn2)nc(N)c1Cc1c(F)cccc1Cl`, for which the 50% inhibitory concentration (IC50) was 2000 nM. In addition, the IC50 under setting [1] was found to be 1300 nM. This compound also yielded an IC50 under setting [2] of 1600 nM.
With `COc1ccc2ncc(=O)n(CCN3CC[C@H](NCc4ncc(Cl)c5[nH]ncc45)[C@H](O)C3)c2n1`, the 50% inhibitory concentration (IC50) was 3200 nM. This compound came in with an IC50 under setting [1] greater than 50000 nM. The same compound had an IC50 under setting [2] of 1600 nM.
Take `CN(Cc1cccnc1)Cc1ccc(N2CCN(C(=O)C3(c4ccc(Cl)cc4)CC3)CC2)nc1`: the IC50 is 1600 nM. The compound further returned an IC50 under setting [1] greater than 50000 nM. This compound registered a 50% inhibitory concentration (IC50) under setting [2] of 1300 nM.
As for `Cc1[nH]nc(C(F)(F)F)c1NC(=O)CCn1cc(Cl)c([N+](=O)[O-])n1`, the IC50 is 25000 nM. The compound also displayed an IC50 under setting [1] greater than 50000 nM. The concentration for half-maximal inhibition (IC50) under setting [2] came out at 6300 nM.
As to `CC(Cn1ccnc1)NC(=O)C1CC1c1cccc(Cl)c1Cl` (centres undefined), the IC50 was 250 nM. This compound gave an IC50 under setting [1] greater than 50000 nM. The same compound yielded an IC50 under setting [2] of 200 nM.
On to `NCc1csc(Nc2cc(Oc3ccccc3)ncn2)n1`, for which the IC50 is 25000 nM. For the same compound, the half-inhibitory concentration (IC50) under setting [1] is greater than 50000 nM. For the same compound, under setting [2], the IC50 was 32000 nM.
On to `COc1ccc([N+](=O)[O-])cc1NC(=O)c1cc(Cl)ccc1O`, for which the IC50 is 16000 nM. The same compound registered an IC50 under setting [1] greater than 50000 nM. Under setting [2], the 50% inhibitory concentration (IC50) stood at 7900 nM.
Regarding `CNc1cncc(C2CCCN2C(=O)Cc2coc3cc(C)ccc23)n1` (centres undefined), the concentration for half-maximal inhibition (IC50) is 200 nM. Besides, under setting [1], the IC50 was greater than 50000 nM. This compound gave an IC50 under setting [2] of 200 nM.
Take `Cc1c(C(C)NC(=O)Nc2cccc(Cl)c2)sc2ncnn12` (centres undefined): the IC50 was 200 nM. Under setting [1], this compound gave an IC50 greater than 50000 nM. Besides, under setting [2], the IC50 is 160 nM.
Take `FC(F)(F)c1cc(C2CCCN(Cc3c[nH]c4ccccc34)C2)nc2ncnn12` (centres undefined): the concentration for half-maximal inhibition (IC50) is 10000 nM. For the same compound, the IC50 under setting [1] was greater than 50000 nM. The same compound showed a half-maximal inhibitory concentration (IC50) under setting [2] of 6300 nM.
Take `O=c1cc(NCCCNCc2cc(C(F)(F)F)cs2)[nH]c2ccccc12`: the IC50 was > 50000 nM (inactive). Under setting [1], this compound came in with an IC50 of 32000 nM. Also, the half-inhibitory concentration (IC50) under setting [2] worked out at 5000 nM.
On to `COc1ccc2nccc([C@H](O)CN3CC[C@H](NC(=O)c4ccc(Br)cc4)[C@@H](O)C3)c2n1`, for which the 50% inhibitory concentration (IC50) is 1600 nM. Besides, the IC50 under setting [1] is 2000 nM. This compound came in with an IC50 under setting [2] of 160 nM.
With `Nc1nonc1-c1nc2cncc(C(=O)N3CC[C@H](N)C3)c2n1CC1CC1`, the IC50 was > 50000 nM (inactive). Also, under setting [1], the 50% inhibitory concentration (IC50) was greater than 50000 nM. The compound also registered an IC50 under setting [2] of 13000 nM.
`O=C(NCC1CCCCC1)c1cnns1`: the half-maximal inhibitory concentration (IC50) was 3200 nM. Moreover, the IC50 under setting [1] was greater than 50000 nM. Under setting [2], this compound displayed a concentration for half-maximal inhibition (IC50) of 2000 nM.
With `COc1ccccc1C1CC(c2ccc(NS(C)(=O)=O)cc2)=NN1C(=O)c1cccs1` (centres undefined), the IC50 was > 50000 nM (inactive). The same compound showed a 50% inhibitory concentration (IC50) under setting [1] greater than 50000 nM. This compound also displayed an IC50 under setting [2] greater than 50000 nM.
With `CC(=O)Nc1ccc(-c2ccnc(Nc3cccc(C#N)c3)n2)cc1`, the concentration for half-maximal inhibition (IC50) is 6300 nM. This compound displayed an IC50 under setting [1] of 13000 nM. Besides, under setting [2], the IC50 is 3200 nM.
Regarding `c1ccc2[nH]c(-c3ccc(N4CCCC4)nc3)nc2c1`, the IC50 was 1600 nM. This compound also came in with a 50% inhibitory concentration (IC50) under setting [1] greater than 50000 nM. Under setting [2], this compound displayed a half-inhibitory concentration (IC50) of 1000 nM.
Consider `CC(C)(C)C(=O)Nc1cc(C2CC2)nn1-c1nc2c(c(=O)[nH]1)CCCC2`, for which the IC50 was 500 nM. The compound also had a half-maximal inhibitory concentration (IC50) under setting [1] of 2000 nM. Further, under setting [2], the IC50 was found to be 130 nM.
Turning to `CCC(=O)Nc1ccc(C(=O)Nc2ccccc2-c2ccccc2)cc1`, the IC50 was 500 nM. Moreover, the IC50 under setting [1] is greater than 50000 nM. For the same compound, under setting [2], the IC50 is 250 nM.
For `O=C(Nc1ccc(S(=O)(=O)N2CCCC2)cc1)c1ccc([N+](=O)[O-])s1` the same measures were 200 nM, 1600 nM and 200 nM.
For `OC1CCC(Nc2nccc(-c3sc(C4CCOCC4)nc3-c3ccc(F)c(F)c3)n2)CC1` (centres undefined) the same measures were 320 nM, 32000 nM and 200 nM.
Consider `Cc1cc(-c2cccc3ccccc23)nc2nc(N)nc(N)c12`, for which the IC50 is > 50000 nM (inactive). Under setting [1], this compound showed a half-maximal inhibitory concentration (IC50) greater than 50000 nM. The compound further yielded a half-inhibitory concentration (IC50) under setting [2] of 32000 nM.
For `Fc1ccc(OC2CC(NCc3cccc4cn[nH]c34)C2)cc1C(F)(F)F` (centres undefined) the same measures were 200 nM, 7900 nM and 160 nM.
For `NS(=O)(=O)c1ccc(CNC(=O)c2ccc([N+](=O)[O-])s2)cc1` the same measures were 5000 nM, 20000 nM and 790 nM.
Consider `O=C(COc1ccccc1)Nc1ccccc1C(=O)Nc1nccs1`, for which the IC50 was > 50000 nM (inactive). The compound also registered a half-maximal inhibitory concentration (IC50) under setting [1] greater than 50000 nM. This compound also gave a half-maximal inhibitory concentration (IC50) under setting [2] greater than 50000 nM.
In the case of `OCC1CCCCN1c1cc(-c2ccccn2)nc(Nc2ccccc2)n1` (centres undefined), the IC50 was 4000 nM. Also, under setting [1], the IC50 was found to be 500 nM. In addition, under setting [2], the IC50 stood at 2000 nM.
On to `O=C(c1ccc(O)c(Cl)c1)N1CCN(c2cnccn2)CC1`, for which the IC50 is > 50000 nM (inactive). The compound further had an IC50 under setting [1] greater than 50000 nM. For the same compound, under setting [2], the IC50 came to 10000 nM.

As a reminder, the IC50 is the concentration that gives 50% inhibition.
